How the values were obtained:
Type in all cases: in vivo
[1] = test system: sunflower (Helianthus annus, HELAN); test: General herbicidal evaluation, preemergence; conditions: 16 days after treatment
Source text: Applications of methylidene mevalonate were made either to the foliage (postemergence) or soil (preemergence). Seeds of sunflower (Helianthus annus, HELAN), morningglory (Ipomoea hederacea, IPOHE) velvetleaf (Abutilon theophrasti, ABUTH), pigweed (Amaranthus spp., AMARE), barnyardgrass (Echinochloa crusgalli, ECHCG), giant foxtail (Setaria faberi, SETFA), wild oats (Avena fatua, AVEFA), and blackgrass (Alopecurus myosuroides, ALOMY) were planted in mineral soil (sandy clay loam, 51% sand, 26% silt, 23% clay, 2.8% O.M., pH 7.8) and Metro-mix (Bulk Sak, Inc., Malvern, Ark., USA) for preemergence and postemergence treatments, respectively. Pots receiving preemergence treatments were watered immediately following application. Prior to postemergence treatment, plants were grown in the greenhouse (16 h photoperiod, 27 C) and thinned to a density of 2 to 15 plants pot^−1, depending on species. At the time of postemergence applications, plants were 8-12 days old, 3 to 10 cm in height, and in the 1- to 3-true-leaf stage. Natural light in the greenhouse was supplemented with metal halide lights that provided an average photosynthetic photon flux of 500 μmol m^−2s^−1.
A sample of sodium methylidene mevalonate was dissolved in 4 mL of distilled water followed by 10 mL of formulation stock “B” (200 mL isopropanol, 20 mL crop oil concentrate, 0.4 g Triton X-155 [Sigma Chemical Co., St. Louis, Mo. 62718], and 78 mL water). This was followed by three 1:1 (v/v) serial dilutions using formulation stock “C” (100 mL isopropanol, 10 mL crop oil concentrate, 0.2 g Triton X-155, 390 mL water, 485 mL acetone and 15 mL DMSO).
Treatments were made at four different doses (4000, 2000, 1000, and 500 g ha^−1). For preemergence treatments, 1.75 mL of spray solution were applied to the soil surface in each pot using a glass Cornwall syringe fitted with a Teejet SS8001E flat-fan nozzle (Spraying Systems Co., Wheaton, Ill. 60189-7900). For postemergence applications, the foliage of the test plants was sprayed using a DeVilbiss atomizer (DeVilbiss Health Car, Inc., Somerset, Pa. 15501) driven by compressed air at a pressure of 22 kPa. Untreated controls were included.
Pots were placed in the greenhouse following compound application. Pots from postemergence and preemergence were sub-irrigated and top-watered, respectively, as needed for the duration of the test. Visual injury ratings were taken 9 and 16 days after treatment for postemergence and preemergence applications, respectively, on a 0 to 100 scale where 0 represents no injury and 100 represents complete necrosis.

[2] = test system: BW ave; test: Post-emergent evaluation, average; conditions: after 2 weeks
Protocol: (§1) Seeds of the desired test plant species were planted in Grace-Sierra MetroMix® 306 planting mixture, which typically has a pH of 6.0 to 6.8 and an organic matter content of about 30 percent, in plastic pots with a surface area of 64 square centimeters. When required to ensure good germination and healthy plants, a fungicide treatment and/or other chemical or physical treatment was applied. The plants were grown for 7-21 days in a greenhouse with an approximate 15 hr photoperiod which was maintained at about 23-29° C. during the day and 22-28° C. during the night. Nutrients and water were added on a regular basis and supplemental lighting was provided with overhead metal halide 1000-Watt lamps as necessary. The plants were employed for testing when they reached the first or second true leaf stage.
(§2) A weighed amount, determined by the highest rate to be tested, of each test compound was placed in a 20 mL glass vial and was dissolved in 4 mL of a 97:3 v/v (volume/volume) mixture of acetone and dimethyl sulfoxide (DMSO) to obtain concentrated stock solutions. […] The concentrated stock solutions obtained were diluted with an aqueous mixture containing acetone, water, isopropyl alcohol, DMSO, Atplus 411F crop oil concentrate, and Triton X-155 surfactant in a 48.5:39:10:1.5:1.0:0.02 v/v ratio to obtain spray solutions of known concentration. The solutions containing the highest concentration to be tested were prepared by diluting 2 mL aliquots of the stock solution with 13 mL of the mixture and lower concentrations were prepared by serial dilution of the stock solution. Approximately 1.5 mL aliquots of each solution of known concentration were sprayed evenly onto each of the test plant pots using a DeVilbiss atomizer driven by compressed air pressure of 2 to 4 psi ([…]) to obtain thorough coverage of each plant. Control plants were sprayed in the same manner with the aqueous mixture. In this test an application rate of 1 ppm results in the application of approximately 1 g/Ha.
(§3) The treated plants and control plants were placed in a greenhouse as described above and watered by sub-irrigation to prevent wash-off of the test compounds. After 2 weeks the condition of the test plants as compared with that of the untreated plants was determined visually and scored on a scale of 0 to 100 percent where 0 corresponds to no injury and 100 corresponds to complete kill. Species abbreviations as described for Table I with the following additions: soybean (Glycine max, GLXMA), rape (Brassica napus, BRSNN), chickweed (Stellaria media, STEME), cocklebur (Xanthium strumarium XANST), lambsquarters (Chenopodium album, CHEAL), violet (Viola tricolor, VIOTR), bindweed (Polygonum convolvulus, POLCO), spurge (Euphorbia heterophylla, EPHHL), Canada thistle (Cirsium arvense, CIRAR), corn (Zea mays, ZEAMX), rice (Oryza sativa, ORYSA), wheat (Triticum aestivum, TRZAS), crabgrass (Digitaria sanguinalis, DIGSA), shattercane (Sorghum vulgare, SORVU) and yellow nutsedge (Cyperus esculentus, CYPES).

[3] = test system: GW ave; test: Post-emergent evaluation, average; conditions: after 2 weeks
Protocol: as §1, §2, §3

[4] = test system: crabgrass (Digitaria sanguinalis, DIGSA); test: Post-emergent evaluation; conditions: after 2 weeks
Protocol: as §1, §2, §3
(§4) By applying the well-accepted probit analysis as described by J. Berkson in Journal of the American Statistical […], 48, 565 (1953) and by D. Finney in “Probit Analysis” Cambridge University Press (1952), similar data can be used to calculate GR80 values, which are defined as growth reduction factors that correspond to the effective dose of herbicide required to kill or control 80 percent of a target plant. Species abbreviations are as previously defined.

[5] = test system: yellow nutsedge (Cyperus esculentus, CYPES); test: Post-emergent evaluation; conditions: after 2 weeks
Protocol: as §1, §2, §3, §4

C=C(CO)C(C)(O)CC(=O)O (stereo not drawn) [methylidene mevalonate, 3-hydroxy-4-(hydroxymethyl)-3-methylpent-4-enoic acid]
Visual Injury (%) ([1]; 0.5 kg ha^−1, HELAN): 20% | Visual Injury (%) ([1]; 1.0 kg ha^−1, HELAN): 30% | Visual Injury (%) ([1]; 2.0 kg ha^−1, HELAN): 30% | Visual Injury (%) ([1]; 4.0 kg ha^−1, HELAN): 60% | Postemergent % Control, BW ave ([2]; spray concentration 125 ppm): 11% | Postemergent % Control, BW ave ([2]; spray concentration 250 ppm): 15% | Postemergent % Control, BW ave ([2]; spray concentration 500 ppm): 37% | Postemergent % Control, BW ave ([2]; spray concentration 1000 ppm): 54% | Postemergent % Control, BW ave ([2]; spray concentration 2000 ppm): 63% | Postemergent % Control, GW ave ([3]; spray concentration 125 ppm): 12% | Postemergent % Control, GW ave ([3]; spray concentration 250 ppm): 39% | Postemergent % Control, GW ave ([3]; spray concentration 500 ppm): 64% | Postemergent % Control, GW ave ([3]; spray concentration 1000 ppm): 82% | Postemergent % Control, GW ave ([3]; spray concentration 2000 ppm): 88% | Postemergent % Control ([4]; spray concentration 125 ppm): 0% | Postemergent % Control ([4]; spray concentration 250 ppm): 10% | Postemergent % Control ([4]; spray concentration 500 ppm): 50% | Postemergent % Control ([4]; spray concentration 1000 ppm): 70% | Postemergent % Control ([4]; spray concentration 2000 ppm): 80% | Postemergent % Control ([5]; spray concentration 125 ppm): 30% | Postemergent % Control ([5]; spray concentration 250 ppm): 70% | Postemergent % Control ([5]; spray concentration 500 ppm): 90% | Postemergent % Control ([5]; spray concentration 1000 ppm): 95% | Postemergent % Control ([5]; spray concentration 2000 ppm): 95%
